Data published in patent US9586931B2 (Merck Sharp & Dohme Corp., priority 2012, dated 2017).

Target: T1, recombinant human GST-Syk (Homo sapiens, UniProt P43405)
T1 construct: purchased Carna Biosciences 08-176
Test: Homogeneous Time-Resolved Fluorescence (HTRF) assay for the recombinant human Syk enzyme
Assay type: biochemical
Conditions: recombinant human GST-Syk 5 pM, ATP 25 μM, 10-dose titration 10 μM to 0.508 nM; read-out: rhSYK Activity IC50
Description: Syk inhibition may be determined using the following assay protocol:
Homogeneous Time-Resolved Fluorescence (HTRF) assay for the recombinant human Syk enzyme: A recombinant GST-hSyk fusion protein was used to measure potency of compounds to inhibit human Syk activity. […] Final volume of the reaction was 10 μL. Phosphorylation of the peptide was allowed to proceed for 45 minutes at room temperature. To quench the reaction and detect the phosphorylated product, 2 nM of a Europium-anti-phosphotyrosine antibody (Perkin Elmer #AD0161) and 70 nM SA-APC (Perkin-Elmer #CR130-100) were added together in 15 mM Tris pH 7.5, 40 mM EDTA, 0.01% tween 20. Final volume of the quenching solution was 10 μL. The resulting HTRF signal was measured after 30 minutes on an EnVision (Perkin-Elmer) reader using a time-resolved fluorescence protocol.

**Q.** With COC(=O)c1ccc(C(CO)n2cc(-c3cc(C)cc(Nc4cc(C(F)(F)F)ccn4)n3)nn2)cc1 (centres unmarked) [Example 4.16, methyl 4-{2-hydroxy-1-[4-(4-methyl-6-{[4-(trifluoromethyl)pyridin-2-yl]amino}pyridin-2-yl)-1H-1,2,3-triazol-1-yl]ethyl}benzoate] as the compound, how does the IC50 read?
**A.** The IC50 was 40.3 nM.

**Q.** With Cc1cc(Nc2ncc(F)c(C(F)F)n2)cc(-c2cn(C3CCCCC3(C)O)nn2)c1 (single isomer, unassigned) [Example 7.26, 2-[4-(3-{[4-(difluoromethyl)-5-fluoropyrimidin-2-yl]amino}-5-methylphenyl)-1H-1,2,3-triazol-1-yl]-1-methylcyclohexanol] as the compound, how does the IC50 read?
**A.** Its IC50 is 13.1 nM.

**Q.** With Cc1cc(Nc2nccc(C(F)(F)F)n2)cc(-n2ccnn2)c1 [Example 15.11, N-[3-methyl-5-(1H-1,2,3-triazol-1-yl)phenyl]-4-(trifluoromethyl)pyrimidin-2-amine] as the compound, how does the IC50 read?
**A.** The IC50 was 102 nM.

**Q.** Cc1cc(Nc2nccc(C3CC3)n2)cc(-c2cn(CC(C)(O)C(C)(C)O)nn2)c1 (centres unmarked) [Example 21.14, 1-(4-{3-[(4-cyclopropylpyrimidin-2-yl)amino]-5-methylphenyl}-1H-1,2,3-triazol-1-yl)-2,3-dimethylbutane-2,3-diol] was tested. Which IC50 did it give?
**A.** The IC50 was 7.4 nM.

**Q.** For Cc1cc(Nc2cc(C(F)(F)F)ccn2)nc(-c2cn(C(C)C(=O)NC3CCS(=O)(=O)C3)nn2)c1 (racemic) [Example 1.2, N-(1,1-Dioxidotetrahydrothiophen-3-yl)-2-[4-(4-methyl-6-{[4-(trifluoromethyl)pyridin-2-yl]amino}pyridin-2-yl)-1H-1,2,3-triazol-1-yl]propanamide (racemic)], which IC50 is on record?
**A.** The IC50 was 42.8 nM.

**Q.** For Cc1cc(Nc2nccc(C(F)(F)F)n2)cc(-c2cn(CC(O)CF)nn2)c1 (racemic) [Example 5.52, 1-fluoro-3-[4-(3-methyl-5-{[4-(trifluoromethyl)pyrimidin-2-yl]amino}phenyl)-1H-1,2,3-triazol-1-yl]propan-2-ol], which IC50 is on record?
**A.** Its IC50 is 16.4 nM.

**Q.** How did the IC50 turn out when Cc1cc(Nc2nccc(C(F)(F)F)n2)cc(-c2cn(CC(C)(O)CO)nn2)c1 (single isomer, unassigned) [Example 21.3, 2-methyl-3-[4-(3-methyl-5-{[4-(trifluoromethyl)pyrimidin-2-yl]amino}phenyl)-1H-1,2,3-triazol-1-yl]propane-1,2-diol] was run?
**A.** The IC50 was 7 nM.

**Q.** For Cc1cc(Nc2cc(C(F)(F)F)ccn2)nc(-c2cn(C3CCC(C(=O)O)C(C)(C)C3)nn2)c1 (single isomer, unassigned) [Example 3.6, (R or S) 2,2-dimethyl-4-[4-(4-methyl-6-{[4-(trifluoromethyl)pyridin-2-yl]amino}pyridin-2-yl)-1H-1,2,3-triazol-1-yl]cyclohexanecarboxylic acid], which IC50 is on record?
**A.** The IC50 was 3.5 nM.

**Q.** With Cc1cc(Nc2cc(C(F)(F)F)ccn2)nc(-c2cn(CC(O)Cn3cccn3)nn2)c1 (centres unmarked) [Example 4.28, 1-[4-(4-methyl-6-{[4-(trifluoromethyl)pyridin-2-yl]amino}pyridin-2-yl)-1H-1,2,3-triazol-1-yl]-3-(1H-pyrazol-1-yl)propan-2-ol] as the compound, how does the IC50 read?
**A.** Its IC50 is 6.6 nM.

**Q.** Cc1cc(Nc2cc(C(F)(F)F)ccn2)nc(-c2cn(C3C=CCCC3)nn2)c1 (centres unmarked) [Example 5.36, 6-(1-cyclohex-2-en-1-yl-1H-1,2,3-triazol-4-yl)-4-methyl-N-[4-(trifluoromethyl)pyridin-2-yl]pyridin-2-amine] was tested. Which IC50 did it give?
**A.** The IC50 was 52 nM.

**Q.** For Cc1cc(Nc2cc(C(F)(F)F)ccn2)nc(-c2cn(CC(O)C(C)(C)O)nn2)c1 (centres unmarked) [Example 10.12, 3-methyl-1-[4-(4-methyl-6-{[4-(trifluoromethyl)pyridin-2-yl]amino}pyridin-2-yl)-1H-1,2,3-triazol-1-yl]butane-2,3-diol], which IC50 is on record?
**A.** Its IC50 is 23.3 nM.

**Q.** With Cc1cc(Nc2nccc(C(F)F)n2)cc(-c2cn(C(C)C(C)(O)CO)nn2)c1 (single isomer, unassigned) [Example 30.2, 3-(4-(3-((4-(Difluoromethyl)pyrimidin-2-yl)amino)-5-methylphenyl)-1H-1,2,3-triazol-1-yl)-2-methylbutane-1,2-diol] as the compound, how does the IC50 read?
**A.** The IC50 was 6.3 nM.

**Q.** With Cc1cc(Nc2nccc(C(F)F)n2)cc(-c2cn(CC3OC(=O)NC3C)nn2)c1 (single isomer, unassigned) [Example 7.41, 5-{[4-(3-{[4-(difluoromethyl)pyrimidin-2-yl]amino}-5-methylphenyl)-1H-1,2,3-triazol-1-yl]methyl}-4-methyl-1,3-oxazolidin-2-one] as the compound, how does the IC50 read?
**A.** The IC50 was 12.8 nM.

**Q.** How did the IC50 turn out when Cc1cc(Nc2cc(C(F)(F)F)ccn2)nc(-c2cn(-c3ccc(C(=O)O)cc3)nn2)c1 [Example 7.1, 4-(4-(4-Methyl-6-((4-(trifluoromethyl)pyridin-2-yl)amino)pyridin-2-yl)-1H-1,2,3-triazol-1-yl)benzoic acid] was run?
**A.** The IC50 was 11.1 nM.

**Q.** COC(=O)C1(n2cc(-c3cc(C)cc(Nc4cc(C(F)(F)F)ccn4)n3)nn2)CC1 [Example 8.1, Methyl 1-[4-(4-methyl-6-{[4-(trifluoromethyl)pyridin-2-yl]amino}pyridin-2-yl)-1H-1,2,3-triazol-1-yl]cyclopropanecarboxylate] was tested. Which IC50 did it give?
**A.** The IC50 was 14.9 nM.

**Q.** Which IC50 does the source give for Cc1ccnc(Nc2cc(C)cc(-c3cn(CCO)nn3)n2)c1 [Example 5.18, 2-(4-{4-methyl-6-[(4-methylpyridin-2-yl)amino]pyridin-2-yl}-1H-1,2,3-triazol-1-yl)ethanol] here?
**A.** The IC50 was 154 nM.

**Q.** How did the IC50 turn out when Cc1cc(Nc2nccc(C(F)(F)F)n2)cc(-n2cc([Si](C)(C)C)nn2)c1 [Example 15.12, N-{3-methyl-5-[4-(trimethylsilyl)-1H-1,2,3-triazol-1-yl]phenyl}-4-(trifluoromethyl)pyrimidin-2-amine] was run?
**A.** Its IC50 is 284 nM.

**Q.** How did the IC50 turn out when Cc1cc(Nc2cc(C(F)(F)F)ccn2)nc(-c2cn(CC(O)C(C)O)nn2)c1 (centres unmarked) [Example 10.13, 1-[4-(4-methyl-6-{[4-(trifluoromethyl)pyridin-2-yl]amino}pyridin-2-yl)-1H-1,2,3-triazol-1-yl]butane-2,3-diol] was run?
**A.** Its IC50 is 18.8 nM.

**Q.** With COC(=O)[C@@H]1CCCN1C(=O)[C@H](C)n1cc(-c2cc(C)cc(Nc3cc(C(F)(F)F)ccn3)n2)nn1 [Example 1.56, methyl 1-{(2S)-2-[4-(4-methyl-6-{[4-(trifluoromethyl)pyridin-2-yl]amino}pyridin-2-yl)-1H-1,2,3-triazol-1-yl]propanoyl}prolinate] as the compound, how does the IC50 read?
**A.** Its IC50 is 423 nM.

**Q.** For Cc1cc(Nc2cc(C(F)(F)F)ccn2)nc(-c2cn([C@H](C)C(=O)O)nn2)c1 [Example 5.29, (2R)-2-[4-(4-methyl-6-{[4-(trifluoromethyl)pyridin-2-yl]amino}pyridin-2-yl)-1H-1,2,3-triazol-1-yl]propanoic acid], which IC50 is on record?
**A.** Its IC50 is 166 nM.

**Q.** Which IC50 does the source give for Cc1cc(Nc2cc(C(F)(F)F)ccn2)nc(-c2cn(C3CCC(C(N)=O)C(C)(C)C3)nn2)c1 (single isomer, unassigned) [Example 1.6, 2,2-dimethyl-4-[4-(4-methyl-6-{[4-(trifluoromethyl)pyridin-2-yl]amino}pyridin-2-yl)-1H-1,2,3-triazol-1-yl]cyclohexanecarboxamide] here?
**A.** The IC50 was 26.6 nM.

**Q.** For Cc1cc(Nc2cc(C(F)(F)F)ccn2)nc(-c2cn(C(C)C(=O)N3CCN(Cc4ccccc4)C(c4ccccc4)C3)nn2)c1 (centres unmarked) [Example 1.50, 6-{1-[2-(4-benzyl-3-phenylpiperazin-1-yl)-1-methyl-2-oxoethyl]-1H-1,2,3-triazol-4-yl}-4-methyl-N-[4-(trifluoromethyl)pyridin-2-yl]pyridin-2-amine], which IC50 is on record?
**A.** Its IC50 is 570 nM.

**Q.** With Cc1cc(Nc2nccc(C(F)(F)F)n2)cc(-n2cc(C3(O)CCC(O)CC3)nn2)c1 (stereo not drawn) [Example 15.16, trans-1-[1-(3-methyl-5-{[4-(trifluoromethyl)pyrimidin-2-yl]amino}phenyl)-1H-1,2,3-triazol-4-yl]cyclohexane-1,4-diol] as the compound, how does the IC50 read?
**A.** Its IC50 is 117 nM.

**Q.** For Cc1cc(Nc2cc(C(F)(F)F)ccn2)nc(-c2cn(C(C)CO)nn2)c1 (centres unmarked) [Example 18.1, 2-[4-(4-Methyl-6-{[4-(trifluoromethyl)pyridin-2-yl]amino}pyridin-2-yl)-1H-1,2,3-triazol-1-yl]propan-1-ol], which IC50 is on record?
**A.** Its IC50 is 2.2 nM.

**Q.** C/C=C/Cn1cc(-c2cc(C)cc(Nc3cc(C(F)(F)F)ccn3)n2)nn1 [Example 5.38, 6-{1-[(2E)-but-2-en-1-yl]-1H-1,2,3-triazol-4-yl}-4-methyl-N-[4-(trifluoromethyl)pyridin-2-yl]pyridin-2-amine] was tested. Which IC50 did it give?
**A.** The IC50 was 17.8 nM.

**Q.** With Cc1cc(Nc2nccc(C(F)F)n2)cc(-c2cn(CC3CNCCO3)nn2)c1 (single isomer, unassigned) [Example 22.2, 4-(difluoromethyl)-N-(3-methyl-5-(1-(morpholin-2-ylmethyl)-1H-1,2,3-triazol-4-yl)phenyl) pyrimidin-2-amine] as the compound, how does the IC50 read?
**A.** Its IC50 is 1.7 nM.

**Q.** How did the IC50 turn out when CC(=O)N1CCN(C(=O)Cn2cc(-c3cc(C)cc(Nc4nccc(C(F)(F)F)n4)c3)nn2)CC1 [Example 5.59, N-(3-{1-[2-(4-acetylpiperazin-1-yl)-2-oxoethyl]-1H-1,2,3-triazol-4-yl}-5-methylphenyl)-4-(trifluoromethyl)pyrimidin-2-amine] was run?
**A.** The IC50 was 69.8 nM.

**Q.** For Cc1ccnc(Nc2cc(C)cc(-c3cn(CC(O)C(F)(F)F)nn3)n2)c1 (racemic) [Example 5.17, 1,1,1-trifluoro-3-(4-{4-methyl-6-[(4-methylpyridin-2-yl)amino]pyridin-2-yl}-1H-1,2,3-triazol-1-yl)propan-2-ol], which IC50 is on record?
**A.** The IC50 was 128 nM.

**Q.** Cc1cc(Nc2nccc(C(F)F)n2)cc(-c2cn(C3CCCC(C)(O)C3O)nn2)c1 (single isomer, unassigned) [Example 29.3, 3-(4-(3-((4-(Difluoromethyl)pyrimidin-2-yl)amino)-5-methylphenyl)-1H-1,2,3-triazol-1-yl)-1-methylcyclohexane-1,2-diol] was tested. Which IC50 did it give?
**A.** Its IC50 is 10.5 nM.
